Measured values reported in US4764461A, “Tellurium and selenium compounds for the induction of in vivo and in vitro production of cytokines” (priority 1987, dated 1988).

Assays:
human mononuclear cells = experiment: Proliferation of human mononuclear cells (Example 19); assay type: cell-based; details: at any concentration that was tested
Description: Human mononuclear cells were obtained by layering heparinized blood over a Ficoll/Hypaque gradient. The mononuclear cells were resuspended in enriched RPMI, rinsed three times and brought to a concentrations of 5×10^5 cells/ml encriched RPMI. […] Aliquots of 0.2 ml of each sample were placed in wells of microplates (triplicates). Microplates were incubated for 72 hours at 37° C. after which they were labelled with H^3 methyl-thymidine 1 uCi/well for an additional 24 hours. Cells were then harvested with a cell harvester.

[1] = test system: IL-2 receptors of human mononuclear cells; experiment: Induction of IL-2 receptors of human mononuclear cells, proliferation by 3HT uptake (Example 18); assay type: cell-based
Description: Human MNC were brought to a concentration of 10^6 cells/ml. RPMI+10% FCS. Aliquots of 0.2 ml. were placed in duplicate wells of microdishes and plates were incubated at 37 C for 24 hrs. […] Plates were further incubated for 48 hrs. and labelled with 3H thymidine 24 hrs. before harvesting.
The proliferation was measured by ^3 HT uptake as described by Gillis et al, J. Immunol. […] The results are expressed in counts per minute.

[2] = test system: IL-2 receptors; human mononuclear cells; experiment: Detection of IL-2 receptor sites with fluoresceinated antibody (Example 21); assay type: cell-based; details: 1 μg/ml, 24 h; control 2%
Description: This example provides an assay to detect the presence of receptor sites for IL-2. […] The cells were washed twice with PBS and then incubated with a specific fluoresceinated antibody against IL-2 receptors as described in Uchiyama et al, J. Immunol.

IL-2; spleen cells = experiment: In vitro IL-2 secretion of mouse spleen cells, CTLD assay (Example 17); assay type: cell-based, Balb/c mice; details: IL-2 activity, 24 h
Description: The compounds listed below were tested in vitro at various concentrations that ranged from 10 μg/ml cells to 1×10^-6 μg/ml of cell mixtures. Cells were obtained from spleens of male Balb/c mice 6-8 weeks of age. Spleens were pushed through a stainless steel 60 mesh strainer to separate cells.

O=[Te]=O [TeO2, Tellurium dioxide]
effect on proliferation (human mononuclear cells): No significant effect | proliferation (3HT uptake), counts per minute ([1]; Test A, 1 μg/ml, control 2338): 1563 counts per minute | proliferation (3HT uptake), counts per minute ([1]; Test A, 1 × 10^-2 μg/ml, control 2338): 3108 counts per minute | proliferation (3HT uptake), counts per minute ([1]; Test A, 1 × 10^-3 μg/ml, control 2338): 2867 counts per minute | proliferation (3HT uptake), counts per minute ([1]; Test A, 1 × 10^-4 μg/ml, control 2338): 5540 counts per minute | proliferation (3HT uptake), counts per minute ([1]; Test A, 1 × 10^-5 μg/ml, control 2338): 3442 counts per minute | proliferation (3HT uptake), counts per minute ([1]; Test A, 5 × 10^-1 μg/ml, control 2338): 4667 counts per minute | proliferation (3HT uptake), counts per minute ([1]; Test A, 5 × 10^-2 μg/ml, control 2338): 2515 counts per minute | proliferation (3HT uptake), counts per minute ([1]; Test A, 7 × 10^-1 μg/ml, control 2338): 2475 counts per minute | proliferation (3HT uptake), counts per minute ([1]; Test B, 1 μg/ml, control 5573): 3275 counts per minute | proliferation (3HT uptake), counts per minute ([1]; Test B, 1 × 10^-2 μg/ml, control 5573): 3077 counts per minute | proliferation (3HT uptake), counts per minute ([1]; Test B, 1 × 10^-3 μg/ml, control 5573): 3800 counts per minute | proliferation (3HT uptake), counts per minute ([1]; Test B, 1 × 10^-4 μg/ml, control 5573): 2925 counts per minute | proliferation (3HT uptake), counts per minute ([1]; Test B, 1 × 10^-5 μg/ml, control 5573): 3645 counts per minute | proliferation (3HT uptake), counts per minute ([1]; Test B, 5 × 10^-1 μg/ml, control 5573): 5405 counts per minute | proliferation (3HT uptake), counts per minute ([1]; Test B, 5 × 10^-2 μg/ml, control 5573): 4280 counts per minute | proliferation (3HT uptake), counts per minute ([1]; Test B, 7 × 10^-1 μg/ml, control 5573): 4302 counts per minute | cells positive for IL-2 receptors [2]: 5% | Spleen Cells (cpm) (IL-2; spleen cells; control 2,550): 17,055 cpm | Spleen Cells, percent increase (IL-2; spleen cells; control 2,550 cpm): 508%
